The target in assay [1] is T1, HMG-CoA reductase enzyme (HMGCR) (Homo sapiens, UniProt P04035).
T1 construct: endogenous protein of HEK293T cells, trapped in GAG-eDHFR virus-like particles, identified by LC-MS/MS
T1 sequence (P04035 1-888): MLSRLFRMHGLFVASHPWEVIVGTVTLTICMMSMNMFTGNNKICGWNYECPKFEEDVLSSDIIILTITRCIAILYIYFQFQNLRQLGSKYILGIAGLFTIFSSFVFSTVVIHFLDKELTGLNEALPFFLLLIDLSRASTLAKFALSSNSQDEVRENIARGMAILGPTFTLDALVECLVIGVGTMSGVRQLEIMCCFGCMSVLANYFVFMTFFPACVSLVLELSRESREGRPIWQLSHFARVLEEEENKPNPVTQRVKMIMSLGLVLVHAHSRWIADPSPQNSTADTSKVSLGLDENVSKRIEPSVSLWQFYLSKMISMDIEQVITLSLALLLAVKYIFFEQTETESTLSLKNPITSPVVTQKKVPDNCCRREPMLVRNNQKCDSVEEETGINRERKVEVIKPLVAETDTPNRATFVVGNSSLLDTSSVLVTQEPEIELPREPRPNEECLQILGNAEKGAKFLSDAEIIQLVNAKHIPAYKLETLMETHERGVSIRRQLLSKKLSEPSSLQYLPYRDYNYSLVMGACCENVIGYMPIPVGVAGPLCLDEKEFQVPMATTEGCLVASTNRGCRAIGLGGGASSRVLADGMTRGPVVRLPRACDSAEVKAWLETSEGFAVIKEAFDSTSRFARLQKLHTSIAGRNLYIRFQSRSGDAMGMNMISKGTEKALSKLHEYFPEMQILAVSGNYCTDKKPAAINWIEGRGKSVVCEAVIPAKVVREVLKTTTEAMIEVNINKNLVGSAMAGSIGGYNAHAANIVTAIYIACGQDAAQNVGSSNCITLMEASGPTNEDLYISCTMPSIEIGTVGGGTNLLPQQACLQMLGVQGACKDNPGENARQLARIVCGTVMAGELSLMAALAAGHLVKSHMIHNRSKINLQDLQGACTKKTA
The assay is described as follows: Virotrap: trapping in GAG-eDHFR virus-like particles, LC-MS/MS. In kind it is cell-based. The settings on record: MTX-PEG-simvastatin conjugate, not free simvastatin; 1 uM on HEK293T producer cells; DMSO and unrelated-bait controls.

A further assay deals with MAL TIR (Homo sapiens) (UniProt P58753). Particulars: cited from earlier work.
Chain of MAL TIR (Homo sapiens) (P58753 81-216): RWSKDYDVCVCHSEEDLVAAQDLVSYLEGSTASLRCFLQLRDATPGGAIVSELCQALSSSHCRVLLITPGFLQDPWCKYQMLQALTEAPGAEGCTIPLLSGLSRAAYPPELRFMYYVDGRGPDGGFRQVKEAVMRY

What is called pKd is −log10 of the Kd, conventionally taken in molar units.

pKd: −log10 of the molar value.

`C[C@H]1C=C2C=C[C@H](C)[C@H](CC[C@@H]3C[C@@H](O)CC(=O)O3)[C@H]2[C@@H](OC(=O)C(C)(C)Cc2cn(CCOCCOCCOCCOCCOCCNC(=O)CC[C@H](NC(=O)c3ccc(N(C)Cc4cnc5nc(N)nc(N)c5n4)cc3)C(=O)O)nn2)C1` [MTX-linked simvastatin]: in assay [1], the “Protein trapped in virus-like particles (LC-MS/MS)” value is “consistent enrichment of the known targets for simvastatin (HMG-CoA reductase enzyme (HMGCR))”.

For MYD88 TIR (from UniProt Q99836), in the assay with MAL TIR (Homo sapiens), the pKd was 5.10.

Source of the values: PMC4853472, “Trapping mammalian protein complexes in viral particles” (Nature Communications, 2016).
